Like-named read-outs stand apart in the source and are kept apart here.
Columns and labels:
[1] = target: T1, α-glucosidase (Saccharomyces cerevisiae, UniProt P53341); assay: α-Glucosidase inhibition assay (pNPG substrate); assay type: biochemical
T1 construct: purchased Sigma-Aldrich
Procedure: α-Glucosidase inhibition was assayed according to the methods described previously. Briefly, 40 μL phosphate buffer (0.1 M, pH = 6.8), 10 μL BA solutions and 50 μL α-glucosidase solution (0.4 U/mL) were added into 96-well plates and mixed thoroughly. After being incubated at 37 °C for 10 min, 50 μL pNPG solution (2.5 mM) was added to initiate the reaction and stayed at 37 °C for 30 min. Then, 40 μL Na2CO3 solution (1.0 M) was added to terminate the reaction. A microplate reader was employed to read the absorbance at 405 nm. The inhibition rates (%) = [(ODcontrol − ODcontrol blank) − (OD test − ODtest blank)]/(ODcontrol − ODcontrol blank) × 100%.

[2] = target: T1, α-glucosidase; assay: Enzyme inhibition kinetics (Lineweaver-Burk plot); assay type: biochemical
Procedure: α-Glucosidase inhibition kinetics was studied as previously reported. BA was set with the concentrations of 0, 12 and 24 μM for 0.2 U/mL α-glucosidase. A series of concentrations of pNPG were used as substrates. The inhibition type was determined by using the Lineweaver–Burk plots and its secondary equations. The kinetic parameters (Vmax and Ki) were evaluated by the nonlinear regression of the Michaelis–Menton equation with GraphPad Prism 7.0. (https://www.graphpad.com/support/prism-7-updates/, accessed on 12 May 2021).

[3] = target: T1, α-glucosidase; assay: SPR assay (Biacore T200); assay type: binding; conditions: 1:1 Langmuir model, enzyme immobilized on CM5 chip, read-out: equilibrium dissociation constant (KD)
Procedure: SPR analysis was applied on a Biacore T200 system (GE Healthcare, Uppsala, Sweden). α-Glucosidase solution (50 μg/mL) was prepared and stayed at room temperature for 30 min. Then, the activated α-glucosidase was immobilized on a CM5 sensor chip pre-activated by EDC/NHS with an amine coupling kit at a flow rate of 10 μL/min. BA solution of different concentrations containing 5% DMSO was serially injected over α-glucosidase coated surface. PBS was used as the mobile phase with a flow rate of 30 μL/min. According to the 1:1 Langmuir model, the equilibrium dissociation constant (KD) was calculated by the Biacore evaluation software. (https://www.cytivalifesciences.com/en/us/shop/protein-analysis/spr-label-free-analysis/software/biacore-insight-evaluation-software-p-23528, accessed on 26 October 2016).

[4] = target: T1, α-glucosidase; assay: Combination of acarbose with BA on α-glucosidase activity; assay type: biochemical, yeast; parameters: key to Vab (observed residual activity) / Vc (expected residual activity): fraction of remaining α-glucosidase activity (0–1)
Procedure: The method was the same as the α-glucosidase activity assay. […] The value for BA (Vb) was also defined. If the inhibitory effects on α-glucosidase of the two compounds are independent, the final remnant activity fraction of α-glucosidase (Vc) is equal to VaVb when the reaction is sequentially treated by those two compounds. […] The types of interaction were determined by the relationship between Vab and Va, Vb, or Vc.

[5] = target: T1, α-glucosidase; parameters: method as in PMID 29902001, doi:10.1016/j.indcrop.2015.08.031, PMID 33876656; conditions: in vitro; read-out: IC50 against α-glucosidase, previous research; cited from earlier work
[6] = test system: postprandial blood glucose level; assay: Oral glucose tolerance test (OGTT); assay type: in vivo, BALB/c mice; conditions: normal mice, oral BA 20 mg/kg or acarbose 7 mg/kg; glucose 2 g/kg
Procedure: (§1) The dynamic characteristics of postprandial blood glucose level were evaluated by ODTT and OGTT, which were performed as described previously. BALB/c mice (5 weeks old, male) were purchased from Guangdong Medical Laboratory Animal Center (Guangzhou, China). The animal study was approved by the Committee on the Ethics of Animal Experiments of the Institute of Microbiology, Guangdong Academy of Science (GT-IACUC202012102). After one week of acclimation, the mice were randomly divided into a control group, BA-treated group and acarbose-treated group (n = 8), respectively. […] After 30 min, all the mice were intragastrically administered with the mixed maltose-sucrose solution (2 g/kg). In total, 10 μL of blood was collected by tail cut and glucose levels at 0, 30, 60, 90 and 120 min was measured by glucometer (Roche ACCU-CHEK Performa Nano), respectively. Two days later, all the mice were give the oral glucose tolerance test (OGTT), which was performed as the ODTT modus. The oral dose of glucose was also 2 g/kg.

[7] = test system: postprandial blood glucose level; assay: Oral disaccharide tolerance test (ODTT); assay type: in vivo, BALB/c mice; conditions: normal mice, oral BA 20 mg/kg or acarbose 7 mg/kg; for postprandial blood glucose levels vs control: after mixed maltose-sucrose, p < 0.01; for blood glucose level at 30 min: mixed maltose-sucrose 2 g/kg, control 12.58 ± 0.47
Procedure: as §1

[8] = target: T1, α-glucosidase; parameters: method as in PMID 29030193; conditions: literature; cited from earlier work

T1 sequence (P53341 whole entry): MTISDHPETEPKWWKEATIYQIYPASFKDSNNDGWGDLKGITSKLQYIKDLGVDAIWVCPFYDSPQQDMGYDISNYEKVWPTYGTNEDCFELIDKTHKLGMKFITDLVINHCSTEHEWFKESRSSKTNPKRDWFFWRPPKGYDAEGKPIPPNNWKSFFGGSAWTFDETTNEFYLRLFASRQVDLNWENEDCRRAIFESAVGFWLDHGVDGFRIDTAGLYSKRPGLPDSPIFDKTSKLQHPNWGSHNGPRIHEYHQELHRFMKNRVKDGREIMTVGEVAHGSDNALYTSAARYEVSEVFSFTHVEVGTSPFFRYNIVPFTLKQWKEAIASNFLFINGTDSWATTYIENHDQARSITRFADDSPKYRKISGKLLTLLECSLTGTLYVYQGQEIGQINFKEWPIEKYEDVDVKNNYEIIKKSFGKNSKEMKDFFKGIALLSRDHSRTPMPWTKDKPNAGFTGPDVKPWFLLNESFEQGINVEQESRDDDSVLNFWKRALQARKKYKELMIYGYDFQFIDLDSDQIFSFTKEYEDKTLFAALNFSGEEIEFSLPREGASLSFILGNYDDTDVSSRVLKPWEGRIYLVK

SMILES: C=C(C)[C@@H]1CC[C@]2(C(=O)O)CC[C@]3(C)[C@H](CC[C@@H]4[C@@]5(C)CC[C@H](O)C(C)(C)[C@@H]5CC[C@]43C)[C@@H]12 [BA, betulinic acid]
- fold stronger than acarbose (IC50) ([1]; BA IC50 vs acarbose IC50): approximately 50 fold
- IC50 ([1]; pNPG 2.5 mM, pH 6.8, 37 °C, read-out: IC50 against α-glucosidase): 16.8 ± 1.16 µM
- inhibition type ([2]; Lineweaver-Burk plot, BA 0, 12 and 24 μM, 0.2 U/mL enzyme): non-competitive
- Ki ([2]; from secondary plot of slope vs. BA, read-out: inhibition kinetic constant (Ki)): 38.5 µM
- Kd [3]: 55.3 µM
- Interaction ([4]; BA 5 μM + acarbose 600 μM): SY (Vab − Vc < −0.1 is considered as the synergistic (SY) interaction between BA and acarbose)
- Vab (observed residual activity) ([4]; BA 5 μM + acarbose 600 μM): 0.47
- Vab − Vc ([4]; BA 5 μM + acarbose 600 μM): −0.12
- Vc (expected residual activity) ([4]; BA 5 μM + acarbose 600 μM): 0.59
- Interaction ([4]; BA 5 μM + acarbose 800 μM): SY (Vab − Vc < −0.1 is considered as the synergistic (SY) interaction between BA and acarbose)
- Vab (observed residual activity) ([4]; BA 5 μM + acarbose 800 μM): 0.42
- Vab − Vc ([4]; BA 5 μM + acarbose 800 μM): −0.15
- Vc (expected residual activity) ([4]; BA 5 μM + acarbose 800 μM): 0.56
- Interaction ([4]; BA 5 μM + acarbose 1000 μM): SY (Vab − Vc < −0.1 is considered as the synergistic (SY) interaction between BA and acarbose)
- Vab (observed residual activity) ([4]; BA 5 μM + acarbose 1000 μM): 0.41
- Vab − Vc ([4]; BA 5 μM + acarbose 1000 μM): −0.13
- Vc (expected residual activity) ([4]; BA 5 μM + acarbose 1000 μM): 0.53
- Interaction ([4]; BA 10 μM + acarbose 600 μM): SY (Vab − Vc < −0.1 is considered as the synergistic (SY) interaction between BA and acarbose)
- Vab (observed residual activity) ([4]; BA 10 μM + acarbose 600 μM): 0.39
- Vab − Vc ([4]; BA 10 μM + acarbose 600 μM): −0.18
- Vc (expected residual activity) ([4]; BA 10 μM + acarbose 600 μM): 0.57
- Interaction ([4]; BA 10 μM + acarbose 800 μM): SY (Vab − Vc < −0.1 is considered as the synergistic (SY) interaction between BA and acarbose)
- Vab (observed residual activity) ([4]; BA 10 μM + acarbose 800 μM): 0.36
- Vab − Vc ([4]; BA 10 μM + acarbose 800 μM): −0.18
- Vc (expected residual activity) ([4]; BA 10 μM + acarbose 800 μM): 0.54
- Interaction ([4]; BA 10 μM + acarbose 1000 μM): SY (Vab − Vc < −0.1 is considered as the synergistic (SY) interaction between BA and acarbose)
- Vab (observed residual activity) ([4]; BA 10 μM + acarbose 1000 μM): 0.34
- Vab − Vc ([4]; BA 10 μM + acarbose 1000 μM): −0.17
- Vc (expected residual activity) ([4]; BA 10 μM + acarbose 1000 μM): 0.51
- Interaction ([4]; BA 15 μM + acarbose 600 μM): SY (Vab − Vc < −0.1 is considered as the synergistic (SY) interaction between BA and acarbose)
- Vab (observed residual activity) ([4]; BA 15 μM + acarbose 600 μM): 0.32
- Vab − Vc ([4]; BA 15 μM + acarbose 600 μM): −0.18
- Vc (expected residual activity) ([4]; BA 15 μM + acarbose 600 μM): 0.50
- Interaction ([4]; BA 15 μM + acarbose 800 μM): SY (Vab − Vc < −0.1 is considered as the synergistic (SY) interaction between BA and acarbose)
- Vab (observed residual activity) ([4]; BA 15 μM + acarbose 800 μM): 0.29
- Vab − Vc ([4]; BA 15 μM + acarbose 800 μM): −0.18
- Vc (expected residual activity) ([4]; BA 15 μM + acarbose 800 μM): 0.48
- Interaction ([4]; BA 15 μM + acarbose 1000 μM): SY (Vab − Vc < −0.1 is considered as the synergistic (SY) interaction between BA and acarbose)
- Vab (observed residual activity) ([4]; BA 15 μM + acarbose 1000 μM): 0.28
- Vab − Vc ([4]; BA 15 μM + acarbose 1000 μM): −0.16
- Vc (expected residual activity) ([4]; BA 15 μM + acarbose 1000 μM): 0.45
- IC50 [5]: 10.6 to 83.6 µM
- effect on blood glucose level after oral glucose [6]: no significant effect
- postprandial blood glucose levels vs control [7]: significantly suppressed
- blood glucose level at 30 min [7]: 10.46 ± 0.31 mM

SMILES: C[C@H]1O[C@H](O[C@H]2[C@H](O)[C@@H](O)[C@@H](O[C@H]3[C@H](O)[C@@H](O)C(O)O[C@@H]3CO)O[C@@H]2CO)[C@H](O)[C@@H](O)[C@@H]1N[C@H]1C=C(CO)[C@@H](O)[C@H](O)[C@H]1O (stereo partly drawn) [acarbose, reference compound]
- inhibition type [8]: competitive
- effect on blood glucose level after oral glucose [6]: no significant effect
- postprandial blood glucose levels vs control [7]: significantly suppressed
- blood glucose level at 30 min [7]: 10.76 ± 0.39 mM

SMILES: CC1(C)CC[C@]2(C(=O)O)CC[C@]3(C)C(=CC[C@@H]4[C@@]5(C)CC[C@H](O)C(C)(C)[C@@H]5CC[C@]43C)[C@@H]2C1 [oleanolic acid]
- inhibition type [8]: non-competitive

SMILES: C[C@H]1[C@H](C)CC[C@]2(C(=O)O)CC[C@]3(C)C(=CC[C@@H]4[C@@]5(C)CC[C@H](O)C(C)(C)[C@@H]5CC[C@]43C)[C@H]12 [ursolic acid]
- inhibition type [8]: non-competitive

— publication PMC9032457, “Binding Interaction of Betulinic Acid to α-Glucosidase and Its Alleviation on Postprandial Hyperglycemia” (Molecules, 2022)
